Test [1] addresses T1, human PNPO F48A/E50L/R161C/R258L variant (Homo sapiens, UniProt Q9NVS9, E50L/F48A/R161C/R258L).
T1 construct: a main form corresponding to the entire protein; made in house; host or cells: E. coli BL21(DE3)
T1 sequence (Q9NVS9 1-261 F48A/E50L/R161C/R258L): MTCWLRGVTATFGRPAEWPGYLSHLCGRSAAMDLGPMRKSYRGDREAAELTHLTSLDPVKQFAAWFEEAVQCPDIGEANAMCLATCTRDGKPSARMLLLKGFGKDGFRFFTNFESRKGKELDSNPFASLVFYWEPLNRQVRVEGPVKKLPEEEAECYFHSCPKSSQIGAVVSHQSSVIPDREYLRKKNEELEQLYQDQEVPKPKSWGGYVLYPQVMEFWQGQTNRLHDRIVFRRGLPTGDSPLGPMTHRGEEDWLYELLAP
Kind of test: PLP binding by DSF, F48A/E50L/R161C/R258L. An excerpt: PLP binding to PNPO can be detected and quantitatively measured using differential scanning fluorimetry (DSF) and also by measuring FMN fluorescence changes. We had previously attributed DSF changes to PLP binding at the active site, while FMN fluorescence changes were attributed to PLP binding at the allosteric site (Barile et al., [2019], [2020]). Previous experiments carried out with the PNPO R161C variant, affecting a residue that is essential for substrate binding and catalysis (and therefore also for PLP binding at the active site), confirms that DSF measurements only report PLP binding at the active site (Barile et al., [2021]; Table 1). The dissociation constant values obtained with DSF are almost the same for the three variants and doubled with respect to the wild type enzyme (Figure 2, Table 1). This behavior reflects the decrease of affinity of these variants for the substrates compared to the wild type PNPO. We expected to observe no FMN fluorescence changes upon titration of the variants with PLP. However, this was not the case, and the dissociation constant values obtained by observing the FMN fluorescence emission were only up to threefold larger in the variants with respect to wild type PNPO (Figure 3). […] To check the second possibility, we measured intrinsic fluorescence changes of wild type and variant apo‐forms (i.e., without FMN) upon PLP titration. […]
For orientation: In DSF a fluorescence change marks the thermal transition of the protein.

The target in test [2] is T2, human PNPO F48A/E50L/R258L variant (Homo sapiens, UniProt Q9NVS9, E50L/F48A/R258L).
T2 construct: a main form corresponding to the entire protein; made in house; host or cells: E. coli BL21(DE3)
T2 sequence (Q9NVS9 1-261 F48A/E50L/R258L): T1 sequence (Q9NVS9 1-261 F48A/E50L/R161C/R258L) with C161R
Kind of test: PLP inhibition kinetics of PNP oxidation, triple variant. The following applies: Na-HEPES pH 7.6, 2 μM enzyme, PLP 0–16 μM. The class given is biochemical. How it is done:
(§1) This is a general inhibition mechanism that takes into account the possibility of PLP binding to both the active and allosteric sites. PLP binding at the active site gives a complete, competitive inhibition, whereas PLP binding at the allosteric site yields a substrate‐enzyme‐PLP ternary complex that is still catalytically active, although k CAT is reduced by a coefficient whose value is around 0.15. A thorough inhibition kinetic characterization was carried out with the wild type, F48A, F48A/E50L/R258L, and F48A/E50L/H248N/R258L PNPO forms, so as to evaluate the effect of the variations on the allosteric properties of the enzyme. The initial velocity of PNP conversion into PLP was measured in Na‐HEPES buffer (in which PLP is allowed to accumulate) by varying substrate concentration at different, fixed exogenous PLP concentrations, using 2 μM enzyme. A series of saturation curves were obtained that were used to fit the Michaelis–Menten equation (Figure 5), acquiring apparent V MAX and K M values as a function of PLP concentration. […]
(§2) FIGURE 5 Characterization of PLP inhibition. Upper panels: The initial velocity of the reaction was measured with 2 μM wild type (a), and the F48A (b), F48A/E50L/R258L (c), and F48A/E50L/H248N/R258L (d) PNPO variants, varying PNP concentration while keeping exogenous PLP fixed at different concentrations (0, 0.25, 0.5, 1, 2, 4, 8, and 16 μM). […]

Test [3] concerns the target T3, human PNPO wild type (Homo sapiens, UniProt Q9NVS9).
T3 sequence (Q9NVS9 1-261): T1 sequence (Q9NVS9 1-261 F48A/E50L/R161C/R258L) with A48F, L50E, C161R, L258R
Nature of the test: PLP inhibition kinetics of PNP oxidation, wild type. The class given is biochemical. The arrangement: a main form corresponding to the entire protein; made in house; host or cells: E. coli BL21(DE3). The note with it: Na-HEPES pH 7.6, 2 μM enzyme, PLP 0–16 μM. How it is done: as §1, §2

In test [4] the target is T3, human PNPO wild type. The arrangement: a main form corresponding to the entire protein; made in house; host or cells: E. coli BL21(DE3); method as in Barile et al., [2020]. The note with it: substrate-enzyme-PLP ternary complex, ref Barile et al., [2020]; cited from earlier work.

The structures appear in SMILES notation. Numbering of substitutions follows the chain as printed.

In the case of `Cc1ncc(COP(=O)(O)O)c(C=O)c1O` [PLP, pyridoxal 5′‐phosphate], in test [1], the “PLP binding KD^DSF” value is “No binding”. Further, the “type of inhibition of PNP oxidation by PLP” value in test [2] was “pure competitive inhibition”; at human PNPO wild type [3] it was “typical hyperbolic increase of 1/V MAX and the parabolic increase of K M/V MAX”. Also, the “coefficient by which kCAT is reduced with PLP bound at the allosteric site” value at human PNPO wild type [4] is recorded as “around 0.15”.

The values are drawn from paper PMC10804683, “Identification of the pyridoxal 5′‐phosphate allosteric site in human pyridox(am)ine 5′‐phosphate oxidase” (Protein Science : A Publication of the Protein Society, 2024).
